Here are results for six molecules from patent publication US10947574B2, “Method for producing fermented carotenoid using carotenoid-producing bacteria obtained by using cobalt-containing culturing medium” (ENEOS CORPORATION, priority 2015, dated 2021).

This test has as its system Paracoccus carotinifaciens strain E-396 (FERM BP-4283). The test is classed as cell-based. The following applies: each trace metal added singly at final concentration of Table 1; shaking at 28° C. for 4 days. The procedure:
Subsequently, a medium of the following composition (glucose 30 g/L, filtered corn steep liquor 30 g/L, ammonium sulfate 1.5 g/L, potassium dihydrogen phosphate 1.5 g/L, disodium hydrogen phosphate dodecahydrate 3.8 g/L, calcium chloride dihydrate 5.0 g/L, magnesium sulfate heptahydrate 0.7 g/L, iron sulfate heptahydrate 1.0 g/L, silicon-based defoaming agent 0.2 g/L) was dispensed in 7.2 ml volumes into cotton-plugged test tubes having an inner diameter of 18 mm to prepare 13 test tubes containing a test tube medium for production. The ingredients used to prepare the test tube medium for production were obtained from lots where microbial cells had been confirmed not to grow well.
The 12 trace metals indicated in Table 1 were separately prepared in 0.8 ml volumes to have their final concentrations indicated in Table 1 and then added to the above 12 test tubes for production, respectively. The remaining one test tube was supplemented with 0.8 ml of ion exchanged water.
The resulting culture solution was then inoculated in 0.05 ml volumes into the 13 types of test tube media for production and cultured under shaking at 28° C. for 4 days at 300 spm.

For `OB(O)O` [Boric acid], the OD610 worked out at 4.
With `O.O.O.O.O.O.[Cl][Cr]([Cl])[Cl]` [Chromium (III) chloride hexahydrate] the figure was 3.
With `[I-].[K+]` [Potassium iodide] the figure was 4; with `O.O.[Na+].[Na+].[O]=[Mo](=[O])([O-])[O-]` [Sodium molybdate dihydrate], 4; with `O=[Se](=O)(O)O` [Sodium selenate], 3.
Molecule `[Na+].[Na+].[O]=[W](=[O])([O-])[O-]` [Sodium tungstate] yielded an OD610 of 4.
